Data from US11407796B2, “Antisecretory factor 17” (LANTMÄNNEN AS-FAKTOR AB, priority 2016, dated 2022).
Where two headings read alike, the source gives them in different places. Ends that are not written are not given here. Peptide text beside a SMILES is read from it. * marks the point of attachment. Succinimide(1-Et,3-yl) = CCN1C(=O)CC(*)C1=O

Tests used:
[1] = Kinetics of AF16 and metabolites in plasma with ZnSO4 precipitant +/-DTT; assay type: in vitro ADME, human, rat; conditions: plasma precipitated with ZnSO4, +/−DTT
Excerpt: The kinetics shown in FIG. 13 was surprising given the fact that DTT was used in the quenching solution with TCA, although it is likely that the reducing capability of DTT is lowered in acidic conditions. It was therefore tested if the same pattern occurred when using a neutral precipitant ZnSO4 (without NaOH). This precipitation method is not as efficient but would hopefully give more information on the formation of the major disulfide products.

[2] = AF16 and AF16-NEM stability in human plasma; assay type: in vitro ADME; conditions: for half-life: 37° C.
Method: Test of AF16 and AF16-NEM stability in plasma was performed using pooled human plasma (4 donors, two female+two male) in HPLC glass vials at 37° C. (20 μM incubation conc.). Four different matrices were tested: Plasma: isotonic 67 mM potassium phosphate pH 7.4 (KP) (1:1), plasma:KP+0.1 mM DTT, KP and KP+0.1 mM DTT. Incubation times were 0, 1.5 and 3 h. At the indicated times a 50 μl aliquot was extracted and quenched/precipitated in 150 μl ice-cold methanol and frozen until analysis. Relative quantification was performed UPLC-MS/MS.
AF16, the stable isotope labeled (SIL) AF16 and the alkylated analog AF16-NEM were incubated at 1 μM in human plasma: 0.1M potassium phosphate pH 7.4 (KP) (1:1), human plasma: KP (1:1)+1 mM DTT, KP or KP+1 mM DTT over 3 h at 37° C. to investigate stability. KP was included to provide buffer capacity to the plasma and to not confuse the results with pH related effects.

[3] = AF16 stability and metabolite formation with Caco-2 cells; assay type: in vitro ADME; conditions: Caco-2, 50 μM, apical side of Caco-2 cells
Method: (§1) Investigation of the fate of AF16 in the presence of Caco-2 cells was performed on three separate occasions. Firstly, a quantitative measurement was performed using MRM methodology (table 1) over 0, 15, 30 and 60 min. Here, AF16 or its possible sulfonic acid metabolite was monitored both in the apical and in the basolateral compartment (not shown). The second experiment was a qualitative determination of the fate of AF16 during a 60 min incubation. 50 μM AF16 in HBSS buffer was incubated at the apical side of the Caco-2 cell monolayer and 100 μl aliquots was extracted at 5, 10, 20, 30 and 60 min. The sample was placed on a 96-well plate containing 100 μl MeCN/H2O. The plate was sealed and frozen until full-scan UPLC-MS analysis (see below and table 2). The third experiment was a mirror of the second and the only difference was that a HBSS solution of AF16:AF16 IS (1:1) was used, to aid in the structure elucidation.
(§2) All samples from the different assays were analyzed by UPLC-MS/MS. The following system was used, a Waters XEVO TQ triple-quadrupole mass spectrometer (electrospray ionization, ESI) coupled to a Waters Acquity UPLC (VVaters Corp.). For chromatographic separation a general gradient was used (1% mobile phase B to 50% over 3 min total run) on a C18 BEH 1.7 μm column 2×100 mm (VVaters Corp.). Mobile phase A consisted of 0.05% TFA and mobile phase B 100% acetonitrile. The flow rate was 0.5 ml/min. In the full-scan MS analysis the same chromatographic settings was used except that 10 μl was injected (full loop). The MS was set to scan for ions in the 100-400 or 400-700 m/z window using the cone voltage in table 1.
(§3) It is well known that in the intestine, and as such at the apical side of Caco-2 cells, brush-border peptidases exist. To further investigate this, a separate experiment was designed. Caco-2 cells were exposed at the apical side to 50 μM AF16, with or without a protease inhibitor cocktail, and were sampled over 1 h.

Caco-2 cells = assay: as above; assay type: in vitro ADME
Method: as §1, §2, §3

[4] = AF16 metabolite identification in human plasma; assay type: in vitro ADME
Method: (§4) (10 μM incubation conc.).
(§5) The flow rate was 0.5 ml/min.
(§6) AF16 and the isotopically labelled peptide in similar quantity were incubated in plasma of rat and human as described above. For analysis of full scan MS data, the metabolite identification software from Sciex, Lightsight, was used, which compares the incubated MS response to the quality control (QC) sample and assigns apparent peaks as metabolites with specific mass over charge (m/z) values. The software is currently not optimal to use with multi-charged compounds such as peptides so the hit-rate of metabolite detection is fairly high and manual assessment of each found peak had to be performed. The largest metabolite peak areas were then rank ordered and in some cases verified by MS/MS fragmentation. Skyline methodology was used to predict fragmentation of the identified peptides, but also aided in creating sensitive MRM methods so that low amounts could be monitored.

[5] = AF16 metabolite identification in rat plasma; assay type: in vitro ADME
Method: as §4, §5, §6

[6] = plasma
[7] = human plasma:KP (1:1) + DTT, read-out: in vitro half-life (t½) with DTT (converted)
[8] = human plasma:KP pH 7.4 (1:1), no DTT, read-out: in vitro half-life (t½) (converted)
[9] = 30 min incubation of AF16, (+) inhibitor cocktail
[10] = 30 min incubation of AF16, (−) inhibitor cocktail
[11] = 60 min incubation of AF16, (+) inhibitor cocktail
[12] = 60 min incubation of AF16, (−) inhibitor cocktail

half-life [2, 7] | half-life [2, 8] | half-life ([3]; with protease inhibitor cocktail (Bestatin, Diprotin A, Captopril), read-out: t½ of degradation with inhibitor cocktail) | half-life ([3]; without inhibitor cocktail, read-out: t½ of degradation) | t½ of degradation with inhibitor cocktail (Caco-2 cells; 50 μM, apical side of Caco-2 cells, with protease inhibitor cocktail (Bestatin, Diprotin A, Captopril)) | Tentative amounts (%) of molecular species (Caco-2 cells; [9]) | Tentative amounts (%) of molecular species (Caco-2 cells; [10]) | Tentative amounts (%) of molecular species (Caco-2 cells; [11]) | Tentative amounts (%) of molecular species (Caco-2 cells; [12]) | % of QC area at 30 min incubation time [4] | % of QC area at 30 min incubation time [5] | half-life [6] | fold higher stability than AF16 ([2]; human plasma, no DTT) | Compound | resilience of the disulfide against DTT reduction [1]
 |  |  |  |  |  |  |  |  |  |  |  |  | C[SCC]HSKTRSNPENNVGL (not fully specified (N-terminus); printed as C[SCC]HSKTRSNPENNVGL; also: [SCC] on the N-terminal Cys, meaning not given here) [M10] | resilient
66 min | 24 min | 57 min | 8 min | 55 min | 79% | 6% | 63% | 1% | 1% | 4% | ≤ 10 min |  | CC(C)C[C@H](NC(=O)CNC(=O)[C@@H](NC(=O)[C@H](CC(N)=O)NC(=O)[C@H](CC(N)=O)NC(=O)[C@H](CCC(=O)O)NC(=O)[C@@H]1CCCN1C(=O)[C@H](CC(N)=O)NC(=O)[C@H](CO)NC(=O)[C@H](CCCNC(=N)N)NC(=O)[C@@H](NC(=O)[C@H](CCCCN)NC(=O)[C@H](CO)NC(=O)[C@H](Cc1c[nH]cn1)NC(=O)[C@H](CS)NC(=O)[C@@H](N)C(C)C)[C@@H](C)O)C(C)C)C(=O)O [AF16, VCHSKTRSNPENNVGL] (H-VCHSKTRSNPENNVGL-OH; N-terminus and C-terminus assumed) | 
 |  |  |  |  | 2% | 38% | 4% | 24% | 0.9% | 0.4% |  |  | CC(C)C[C@H](NC(=O)CNC(=O)[C@@H](NC(=O)[C@H](CC(N)=O)NC(=O)[C@H](CC(N)=O)NC(=O)[C@H](CCC(=O)O)NC(=O)[C@@H]1CCCN1C(=O)[C@H](CC(N)=O)NC(=O)[C@H](CO)NC(=O)[C@H](CCCNC(=N)N)NC(=O)[C@@H](NC(=O)[C@H](CCCCN)NC(=O)[C@H](CO)NC(=O)[C@@H](N)Cc1c[nH]cn1)[C@@H](C)O)C(C)C)C(=O)O [M3, HSK TRSNP ENNVG L] (H-HSKTRSNPENNVGL-OH; N-terminus and C-terminus assumed) | 
252 min | 108 min |  |  |  |  |  |  |  |  |  |  | ~5 fold | CCN1C(=O)CC(SC[C@H](NC(=O)[C@@H](N)C(C)C)C(=O)N[C@@H](Cc2c[nH]cn2)C(=O)N[C@@H](CO)C(=O)N[C@@H](CCCCN)C(=O)N[C@H](C(=O)N[C@@H](CCCNC(=N)N)C(=O)N[C@@H](CO)C(=O)N[C@@H](CC(N)=O)C(=O)N2CCC[C@H]2C(=O)N[C@@H](CCC(=O)O)C(=O)N[C@@H](CC(N)=O)C(=O)N[C@@H](CC(N)=O)C(=O)N[C@H](C(=O)NCC(=O)N[C@@H](CC(C)C)C(=O)O)C(C)C)[C@@H](C)O)C1=O (stereo partly shown) [AF16-NEM] (H-VC(Succinimide(1-Et,3-yl))HSKTRSNPENNVGL-OH; N-terminus and C-terminus assumed) | 
